According to patent US12227512B2, “Benzimidazoles and methods of using same” (priority 2019, dated 2025):

Legend:
[1] = system: Gli-luciferace activity in the SUFU-KO-light cells; experiment: SUFU-KO-Light assay, inhibition of Gli-luciferase activity; assay type: cell-based; details: read-out: IC50 (μM) SUFU-KO-Light; inhibition of Gli-luciferase activity; listed as Isis-11 (+isomer/E1)
Source text: IC50 SUFO-KO-Light values are for inhibition of Gli-luciferace activity in the SUFU-KO-light cells developed by the James Chen laboratory at Stanford University.

[2] = system: MB002 cells; experiment: MTT assay, cell proliferation; assay type: cell-based; details: MB002, read-out: Dose E1
[3] = system: SARS-CoV-2; details: SARS-CoV-2-infected Vero E6 cells; 6 concentrations, 48 hours; XTT
[4] = Mouse PK evaluation, plasma, IV; details: CD-1 mice; for concentration at 0.083 h / concentration at 0.25 h / concentration at 0.5 h / concentration at 1 h / concentration at 2 h / concentration at 4 h / concentration at 8 h / concentration at 24 h: Plasma concentration; for AUC(0-t): AUClast
[5] = CD-1, mouse, in vivo, 3 mg/kg, Mean, 3 mg/kg IV
[6] = CD-1, mouse, in vivo, 3 mg/kg, Mouse 1, 3 mg/kg IV
[7] = CD-1, mouse, in vivo, 3 mg/kg, Mouse 2, 3 mg/kg IV
[8] = CD-1, mouse, in vivo, 3 mg/kg, Mouse 3, 3 mg/kg IV

With CN(C)CCCn1c(N)nc2ccc3c(c21)CC(CN(C)C)O3 (single isomer, unassigned) [Compound E1] the IC50 [1] was 5 µM, the IC50 [2] was 16.5 µM and the “effect on viral replication over the tested concentration range” value [3] was “no effect on viral replication”. For the same compound, the “AUC_%Extrap_obs, Mean” value ([4]; 3 mg/kg IV) was 20.8%, the “AUC_%Extrap_obs, Mouse 1” value ([4]; 3 mg/kg IV) was 25.7% and the “AUC_%Extrap_obs, Mouse 2” value ([4]; 3 mg/kg IV) was 20.8%. The “AUC_%Extrap_obs, Mouse 3” value ([4]; 3 mg/kg IV) was 15.9%, the “AUClast/D, Mean” value ([4]; 3 mg/kg IV) was 116 and the “AUClast/D, Mouse 1” value ([4]; 3 mg/kg IV) was 107. For the same compound, the “AUClast/D, Mouse 2” value ([4]; 3 mg/kg IV) was 108, the “AUClast/D, Mouse 3” value ([4]; 3 mg/kg IV) was 132 and the “C0, Mean” value ([4]; 3 mg/kg IV) was 664 ng/mL. For the same compound, the “C0, Mouse 1” value ([4]; 3 mg/kg IV) was 619 ng/mL, the “C0, Mouse 2” value ([4]; 3 mg/kg IV) was 624 ng/mL and the “C0, Mouse 3” value ([4]; 3 mg/kg IV) was 749 ng/mL. For the same compound, the “Cl_obs, Mean” value ([4]; 3 mg/kg IV) was 115 mL/min/kg, the “Cl_obs, Mouse 1” value ([4]; 3 mg/kg IV) was 116 mL/min/kg and the “Cl_obs, Mouse 2” value ([4]; 3 mg/kg IV) was 122 mL/min/kg. For the same compound, the “Cl_obs, Mouse 3” value ([4]; 3 mg/kg IV) was 106 mL/min/kg, the “Vss_obs, Mean” value ([4]; 3 mg/kg IV) was 90 L/kg and the “Vss_obs, Mouse 1” value ([4]; 3 mg/kg IV) was 104 L/kg. The “Vss_obs, Mouse 2” value ([4]; 3 mg/kg IV) was 96.2 L/kg, the “Vss_obs, Mouse 3” value ([4]; 3 mg/kg IV) was 68.3 L/kg and the “Plasma concentration, Mouse 1” value ([4]; 3 mg/kg IV, 0.5 h) was 45.5 ng/mL. For the same compound, the “Plasma concentration, Mouse 1” value ([4]; 3 mg/kg IV, 1 h) was 21.4 ng/mL, the “Plasma concentration, Mouse 1” value ([4]; 3 mg/kg IV, 2 h) was 13.4 ng/mL and the “Plasma concentration, Mouse 1” value ([4]; 3 mg/kg IV, 24 h) was 10.0 ng/mL. For the same compound, the “Plasma concentration, Mouse 3” value ([4]; 3 mg/kg IV, 24 h) was 4.33 ng/mL, the concentration at 0.083 h [4, 5] was 387 ng/mL and the concentration at 0.25 h [4, 5] was 131 ng/mL. It also gave a concentration at 0.5 h ([4]; CD-1, mouse, in vivo, 3 mg/kg, Mean, 3 mg/kg IV, 0.5 h) of 59.1 ng/mL, a concentration at 1 h ([4]; CD-1, mouse, in vivo, 3 mg/kg, Mean, 3 mg/kg IV, 1 h) of 42.9 ng/mL and a concentration at 2 h ([4]; CD-1, mouse, in vivo, 3 mg/kg, Mean, 3 mg/kg IV, 2 h) of 17.8 ng/mL. It also gave a concentration at 4 h [4, 5] of 13.5 ng/mL, a concentration at 8 h [4, 5] of 7.3 ng/mL and a concentration at 24 h ([4]; CD-1, mouse, in vivo, 3 mg/kg, Mean, 3 mg/kg IV, 24 h) of 6.1 ng/mL. It also gave a concentration at 0.083 h [4, 6] of 352 ng/mL, a concentration at 0.25 h [4, 6] of 113 ng/mL and a concentration at 4 h [4, 6] of 13.3 ng/mL. It also gave a concentration at 8 h [4, 6] of 5.5 ng/mL, a concentration at 0.083 h [4, 7] of 367 ng/mL and a concentration at 0.25 h [4, 7] of 126 ng/mL. For the same compound, the concentration at 0.5 h ([4]; CD-1, mouse, in vivo, 3 mg/kg, Mouse 2, 3 mg/kg IV, 0.5 h) was 60.9 ng/mL, the concentration at 1 h ([4]; CD-1, mouse, in vivo, 3 mg/kg, Mouse 2, 3 mg/kg IV, 1 h) was 51.8 ng/mL and the concentration at 2 h ([4]; CD-1, mouse, in vivo, 3 mg/kg, Mouse 2, 3 mg/kg IV, 2 h) was 20.7 ng/mL. It also gave a concentration at 4 h [4, 7] of 12.9 ng/mL, a concentration at 8 h [4, 7] of 6.2 ng/mL and a concentration at 24 h ([4]; CD-1, mouse, in vivo, 3 mg/kg, Mouse 2, 3 mg/kg IV, 24 h) of 4.11 ng/mL. It also gave a concentration at 0.083 h [4, 8] of 443 ng/mL, a concentration at 0.25 h [4, 8] of 154 ng/mL and a concentration at 0.5 h ([4]; CD-1, mouse, in vivo, 3 mg/kg, Mouse 3, 3 mg/kg IV, 0.5 h) of 71 ng/mL. For the same compound, the concentration at 1 h ([4]; CD-1, mouse, in vivo, 3 mg/kg, Mouse 3, 3 mg/kg IV, 1 h) was 55.5 ng/mL, the concentration at 2 h ([4]; CD-1, mouse, in vivo, 3 mg/kg, Mouse 3, 3 mg/kg IV, 2 h) was 19.2 ng/mL and the concentration at 4 h [4, 8] was 14.3 ng/mL. For the same compound, the concentration at 8 h [4, 8] was 10.2 ng/mL, the AUC(0-inf) ([4]; CD-1, mouse, in vivo, iv, 3 mg/kg, AUCInf, Mouse 3, 3 mg/kg IV) was 470 ng·h/mL and the AUC(0-t) ([4]; CD-1, mouse, in vivo, iv, 3 mg/kg, Mean, 3 mg/kg IV) was 347 ng·h/mL. It also gave an AUC(0-t) ([4]; CD-1, mouse, in vivo, iv, 3 mg/kg, Mouse 1, 3 mg/kg IV) of 321 ng·h/mL, an AUC(0-t) ([4]; CD-1, mouse, in vivo, iv, 3 mg/kg, Mouse 2, 3 mg/kg IV) of 324 ng·h/mL and an AUC(0-t) ([4]; CD-1, mouse, in vivo, iv, 3 mg/kg, Mouse 3, 3 mg/kg IV) of 395 ng·h/mL. The MRT inf ([4]; CD-1, mouse, in vivo, iv, 3 mg/kg, MRTInf_obs, Mouse 3, 3 mg/kg IV) was 10.7 h and the half-life ([4]; CD-1, mouse, in vivo, iv, 3 mg/kg, T1/2, Mouse 3, 3 mg/kg IV) was 12 h.
